# Test results published in US11214803B2, “Modulators of YAP1 expression” (Ionis Pharmaceuticals, Inc., priority 2019, dated 2022).
# Strand notation (5' to 3'): a small letter for the sugar, then the base; units joined by * are phosphorothioate-linked, units joined directly phosphodiester-linked; [ ] holds rarer units or linkages, { } end groups; capitals alone tell only the bases. k = constrained ethyl (cEt); [5mC] = 5-methylcytosine; d = 2'-deoxy (DNA)
# Experiments:
# [1] = Cynomolgus monkey tolerability, body and organ weight measurements (Example 34); type: in vivo; conditions: cynomolgus monkeys, 35 mg/kg subcutaneously, loading doses days 1, 3, 5, 7, then once per week
# Experimental: Cynomolgus monkeys were treated with Ionis modified oligonucleotides selected from studies described in the Examples above. Modified oligonucleotide tolerability was evaluated.
# During the study period, the monkeys were observed twice daily for signs of illness or distress. Any animal experiencing more than momentary or slight pain or distress due to the treatment, injury or illness was treated by the veterinary staff with approved analgesics or agents to relieve the pain after consultation with the Study Director. Any animal in poor health or in a possible moribund condition was identified for further monitoring and possible euthanasia. Scheduled euthanasia of the animals was conducted on day 86 approximately 48 hours after the last dose by exsanguination while under deep anesthesia. The protocols described in the Example were approved by the Institutional Animal Care and Use Committee (IACUC).
# To evaluate the effect of Ionis oligonucleotides on the overall health of the animals, body and organ weights were measured. Terminal body weight was measured prior to necropsy.
# [2] = Cynomolgus monkey tolerability, pro-inflammatory proteins analysis, Complement C3 and CRP (Example 34); type: in vivo; conditions: cynomolgus monkeys, 35 mg/kg subcutaneously, day 42 pre-dose and 24 hours post-dose
# Experimental: To evaluate any inflammatory effect of Ionis oligonucleotides in cynomolgus monkeys, blood samples were taken for analysis. The monkeys were fasted overnight prior to blood collection. On day 42 (pre-dose and 24 hours post-dose), approximately 0.8 mL of blood was collected from each animal and put into tubes without anticoagulant for serum separation. […] Complement C3 were measured using a Toshiba 120 FR NEO chemistry analyzer (Toshiba Co., Japan). […] Another marker of inflammation, C-Reactive Protein (CRP) was tested together with the clinical chemistry parameters tested for liver function above.
# [3] = Cynomolgus monkey tolerability, hematology (Example 34); type: in vivo, cynomolgus monkeys; conditions: cynomolgus monkeys, 35 mg/kg subcutaneously, blood samples day 44
# Experimental: To evaluate any effect of Ionis oligonucleotides in cynomolgus monkeys on hematologic parameters, blood samples of approximately 0.5 mL of blood was collected from each of the available study animals on day 44. The samples were collected in tubes containing K2-EDTA. Samples were analyzed for red blood cell (RBC) count, Hemoglobin (HGB), Hematocrit (HCT), Mean corpuscular volume (MCV), mean corpuscular hemoglobin (MCH), mean corpuscular hemoglobin concentration (MCHC), RBC Distribution Width (RCDW), reticulocyte count (Retic), platelet count (PLT), mean platelet volume (MPV), white blood cells (WBC) count, individual white blood cell counts, such as that of monocytes (MON), neutrophils (NEU), lymphocytes (LYM), eosinophils (EOS), basophils (BAS), and large unstained cells (LUC) using an ADVIA2120i hematology analyzer (Siemens, USA).
# [4] = Cynomolgus monkey tolerability, coagulation (Example 34); type: in vivo; conditions: cynomolgus monkeys, 35 mg/kg subcutaneously, blood samples day 44
# Experimental: To evaluate effect of Ionis modified oligonucleotides on coagulation in cynomolgus monkeys, blood samples of approximately 0.9 mL were collected from each of the available study animals on day 44. The samples were collected in tubes containing 3.2% sodium citrate. Coagulation parameters tested include Activated partial thromboplastin time (APTT), prothrombin time (PT) and Figrinogen (FIB).
# SNU449 xenograft tumor = assay: Tumor volume in SNU449 xenograft tumor model, alone and in combination with sorafenib (second Example 30); type: in vivo, human; conditions: SNU449 xenograft in mice
# Experimental: Modified oligonucleotides described in the studies above were tested in a hepatocellular carcinoma SNU449 xenograft tumor model. […] A control oligonucleotide 792169, described herein above, was also tested.
# Five million SNU449 cells in 30% matrigel were implanted subcutaneously into the fatpads of female NOD.Cg-Prkdcscid II2rgtmlWjl/SzJ mice (from Jackson Laboratory) at 4-6 weeks of age. 43 days post implantation (when tumors had reached approximately 100 mm^3 in size), groups of eight mice each were administered with 50 mg/kg modified oligonucleotide daily for 10 days (loading dose), following which they were administered with 50 mg/kg modified oligonucleotide four times a week for one week, following which they were dosed with 50 mg/kg modified oligonucleotide thrice weekly until the end of the study. […] Animals were sacrificed, and tumors were collected on day 119 post implantation.
# Tumor volumes were also measured at the indicated days in the table below.
# ERK1/2 = assay: Measurement of ERK activation (pERK/ERK) in SNU449 xenograft model with sorafenib (second Example 30); type: in vivo, human; conditions: SNU449 xenograft in mice, combination therapy compared with sorafenib treatment alone
# Experimental: Five million SNU449 cells in 30% matrigel were implanted subcutaneously into the fatpads of female NOD.Cg-Prkdcscid II2rgtmlWjl/SzJ mice (from Jackson Laboratory) at 4-6 weeks of age. 43 days post implantation (when tumors had reached approximately 100 mm^3 in size), groups of eight mice each were administered with 50 mg/kg modified oligonucleotide daily for 10 days (loading dose), following which they were administered with 50 mg/kg modified oligonucleotide four times a week for one week, following which they were dosed with 50 mg/kg modified oligonucleotide thrice weekly until the end of the study.
# Protein analysis was carried out using standard procedures. […] ERK protein levels were compared to internal control GAPDH. […] The secondary antibody used was donkey anti-rabbit NA934, GE Healthcare. pERK/ERK levels were calculated relative to PBS control to determine % activation of ERK1/2.
# [5] = Cynomolgus monkey tolerability, urine analysis (Example 34); conditions: cynomolgus monkeys, 35 mg/kg subcutaneously, day 44
# Experimental: (§3) Prior to the study, the monkeys were kept in quarantine during which the animals were observed daily for general health. The monkeys were 2-4 years old and weighed 2-4 kg. Eleven groups of 4 randomly assigned male cynomolgus monkeys each were injected subcutaneously with Ionis oligonucleotide or saline in a clock-wise rotation between four different sites on the back. Following loading doses on days 1, 3, 5 and 7, the monkeys were dosed once per week (on days 14, 21, 28, 35, and 42) with 35 mg/kg of Ionis oligonucleotide.
# Food was removed overnight the day before fresh urine collection, but water was supplied. Fresh urine samples for urinalysis and urine chemistry were collected from all animals using a clean cage pan on wet ice (first in the morning) on day 44. Urinalysis/Urine Chemistry parameters creatinine (UCRE), microprotein (UTP), urine microalbumin (UALB), and protein/creatinine (P/C) ratio were measured using a Toshiba 120FR automated chemistry analyzer (Toshiba Co., Japan).
# [6] = Cynomolgus monkey tolerability, kidney and liver function markers (Example 34); conditions: cynomolgus monkeys, 35 mg/kg subcutaneously, blood samples day 44
# Experimental: as §3
# To evaluate the effect of Ionis oligonucleotides on hepatic and kidney function, blood samples were collected from all the study groups on day 44. The monkeys were fasted overnight prior to blood collection. Blood was collected in tubes without anticoagulant for serum separation. The tubes were kept at room temperature for a minimum of 90 minutes and then centrifuged at 3000 rpm for 10 minutes to obtain serum. Levels of various liver function markers were measured using a Toshiba 200FR NEO chemistry analyzer (Toshiba Co., Japan).
# Yap1 mRNA [7] = assay: Dose-dependent inhibition of human Yap1 in A-431 cells (Example 7, 10,000 cells per well, RTS36584); type: cell-based; conditions: free uptake; for Yap1 mRNA, % UTC: A-431 cells 10,000 cells per well, 48 hours
# Procedure, shortened: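 A-431 cells at 10,000 per well received modified oligonucleotides by free uptake at several doses. After about 48 hours, Yap1 mRNA was quantified with primer-probe set RTS36584, normalized to RIBOGREEN total RNA and expressed as % untreated control. IC50 came from linear regression on a log/linear plot.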
# [8] = Tolerability in Balb/c mice, plasma chemistry markers (Example 13); type: in vivo; conditions: male Balb/c mice, 50 mg/kg s.c. twice a week for four weeks (8 treatments), day 25
# Experimental: Balb/c mice were treated with modified oligonucleotides selected from studies described above and evaluated for changes in the levels of various plasma chemistry markers.
# (§1) Groups of male Balb/c mice at 4-6 weeks of age (obtained from Taconic) were injected subcutaneously twice a week for four weeks (for a total of 8 treatments) with 50 mg/kg of modified oligonucleotides. One group of male Balb/c mice was injected with PBS. Mice were euthanized on day 25 post start of treatment (24 hours following the final administration).
# [9] = Tolerability in Balb/c mice, body and organ weights (Example 13); type: in vivo; conditions: male Balb/c mice, 50 mg/kg s.c. twice a week for four weeks (8 treatments), end of study (day 25)
# Experimental: as §1
# Body weights of Balb/c mice were measured at the end of the study, and the average body weight for each group is presented in the table below. Modified oligonucleotides that caused any changes in organ weights outside the expected range for modified oligonucleotides were excluded from further studies.
# Yap1 mRNA [10] = assay: Dose-dependent inhibition of human Yap1 in A-431 cells (Example 8, 10,000 cells per well, RTS4814); type: cell-based; conditions: free uptake, approximately 48 hours, RTS4814; for Yap1 mRNA, % UTC: A-431 cells, 10,000 cells per well
# Procedure, shortened: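 A-431 cells (10,000/well) dosed with modified oligonucleotides by free uptake; Yap1 mRNA measured ~48 h later with primer-probe set RTS4814, normalized to total RNA (RIBOGREEN). Values are % of untreated control; IC50 from linear regression on log/linear plot.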
# Yap1 mRNA [11] = assay: Dose-dependent inhibition of human Yap1 in SNU-449 cells (Example 9, RTS36584); type: cell-based; conditions: free uptake; for % UTC (Yap1 mRNA): approximately 48 hours
# Procedure, shortened: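 SNU-449 cells (10,000/well) took up modified oligonucleotides by free uptake at a range of doses for about 48 h. Yap1 mRNA was quantified with primer-probe set RTS36584, normalised to RIBOGREEN total RNA and expressed as % untreated control; IC50 from linear regression on log/linear plot.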
# [12] = Tolerability in CD-1 mice, plasma chemistry markers (Example 18); type: in vivo; conditions: male CD-1 mice, 50 mg/kg s.c. twice a week (total of 9 treatments), day 34
# Experimental: CD-1 mice were treated with modified oligonucleotides selected from studies described above and evaluated for changes in the levels of various plasma chemistry markers.
# (§2) Groups of four male CD-1 mice at 5-6 weeks of age (obtained from Charles River) were injected subcutaneously twice a week for four weeks (for a total of 9 treatments) with 50 mg/kg of modified oligonucleotides. One group of male CD-1 mice was injected with PBS. Mice were euthanized on day 34 post start of treatment (24 hours following the final administration).
# [13] = Tolerability in CD-1 mice, body and organ weights (Example 18); type: in vivo; conditions: male CD-1 mice, 50 mg/kg s.c. twice a week (total of 9 treatments), end of study (day 34)
# Experimental: as §2
# Body weights of CD-1 mice were measured at the end of the study, and the average body weight for each group is presented in the table below. Modified oligonucleotides that caused any changes in organ weights outside the expected range for modified oligonucleotides were excluded from further studies.
# [14] = Tolerability in Sprague-Dawley rats, plasma chemistry markers (Example 20); type: in vivo; conditions: male Sprague-Dawley rats, 50 mg/kg s.c. weekly for 6 weeks (7 doses), 48 hours after last dose
# Experimental: Sprague-Dawley rats are a multipurpose model used for safety and efficacy evaluations. The rats were treated with Ionis modified oligonucleotides from the studies described in the Examples above and evaluated for changes in the levels of various plasma chemistry markers.
# [15] = Tolerability in Sprague-Dawley rats, body and organ weights (Example 20); type: in vivo; conditions: male Sprague-Dawley rats, 50 mg/kg s.c. weekly for 6 weeks (7 doses)
# Experimental: Terminal body weight was measured prior to necropsy. Ionis oligonucleotides that caused any changes in organ weights outside the expected range for modified oligonucleotides were excluded from further studies.
# [16] = Tolerability in Sprague-Dawley rats, kidney function, urine total protein to creatinine ratio (Example 20); conditions: male Sprague-Dawley rats, 50 mg/kg subcutaneously weekly for 6 weeks (total 7 doses)
# Experimental: Male Sprague-Dawley rats were maintained on a 12-hour light/dark cycle and fed ad libitum with Purina normal rat chow. Groups of 4 Sprague-Dawley rats each were weekly injected subcutaneously with 50 mg/kg of Ionis oligonucleotide for 6 weeks (total 7 doses). Forty-eight hours after the last dose, the rats were euthanized; and organs, urine and plasma were harvested for further analysis.
# To evaluate the effect of Ionis oligonucleotides on kidney function, urinary levels of total protein and creatinine were measured using an automated clinical chemistry analyzer (Hitachi Olympus AU400c, Melville, N.Y.).
substance,measurement,setting,value
"ION 1198440 (AAGTGTATGTCAGAAG; cEt, 2'-MOE, 5-methylcytosine, phosphorothioate modifications, further chemistry not given here)",effect on body and organ weights,[1],well tolerated
same,inflammation (Complement C3),[2],did not cause any inflammation
same,effect on hematologic parameters,[3],well tolerated
same,effect on coagulation parameters,[4],well tolerated
same,tumor volume,SNU449 xenograft tumor; 50 mg/kg modified oligonucleotide alone,significant reduction in tumor volume
same,"tumor volume, combination with sorafenib",SNU449 xenograft tumor; 50 mg/kg modified oligonucleotide plus 30 mg/kg sorafenib orally 7 times a week,further reduction in tumor volume
same,"ERK1/2 activation (pERK/ERK relative to PBS control), combination with sorafenib",ERK1/2,significant decrease in ERK1/2 activation
same,urine chemistry markers,[5],well tolerated
same,effect on liver function,[6],well tolerated
958371 (antisense kA*k[5mC]*k[5mC]*dA*dA*d[5mC]*dT*dA*dT*dT*dA*d[5mC]*dT*kT*k[5mC]*kA) [compound 958371],"Yap1 mRNA, % UTC","Yap1 mRNA [7]; Table 56, 15.6 nM",89 % UTC
same,"Yap1 mRNA, % UTC","Yap1 mRNA [7]; Table 56, 62.5 nM",57 % UTC
same,"Yap1 mRNA, % UTC","Yap1 mRNA [7]; Table 56, 4000.00 nM",11 % UTC
same,IC50,"Yap1 mRNA [7]; Table 56, A-431 cells 10,000 cells per well",0.1 µM
same,ALT,[8],249 U/L
same,AST,[8],199 U/L
same,BUN,[8],30 mg/dL
same,TBIL,[8],0.24 mg/dL
same,Kidney weight,[9],0.32 g
same,Liver weight,[9],1.31 g
same,Spleen weight,[9],0.15 g
same,body weight,[9],23 g
1076481 (k[5mC]*kT*kA*dA*dG*dT*dA*dA*dG*dG*dT*dT*dT*k[5mC]*k[5mC]*k[5mC]) [compound 1076481],"Yap1 mRNA, % UTC",Yap1 mRNA [10]; 31.3 nM,21 % UTC
same,"Yap1 mRNA, % UTC",Yap1 mRNA [10]; 125.0 nM,4 % UTC
same,"Yap1 mRNA, % UTC",Yap1 mRNA [10]; 500.0 nM,2 % UTC
same,"Yap1 mRNA, % UTC",Yap1 mRNA [10]; 2000.00 nM,3 % UTC
same,IC50,"Yap1 mRNA [10]; A-431 cells, linear regression on log/linear plot",< 0.02 µM
same,% UTC (Yap1 mRNA),Yap1 mRNA [11]; 31.3 nM,86 % UTC
same,% UTC (Yap1 mRNA),Yap1 mRNA [11]; 125.0 nM,40 % UTC
same,% UTC (Yap1 mRNA),Yap1 mRNA [11]; 500.0 nM,15 % UTC
same,% UTC (Yap1 mRNA),Yap1 mRNA [11]; 2000.00 nM,3 % UTC
same,IC50,Yap1 mRNA [11]; linear regression on a log/linear plot,0.1 µM
same,ALT,[12],71 U/L
same,AST,[12],121 U/L
same,BUN,[12],23 mg/dL
same,TBIL,[12],0.23 mg/dL
same,Kidney weight,[13],0.57 g
same,Liver weight,[13],2.06 g
same,Spleen weight,[13],0.23 g
same,body weight,[13],39 g
same,ALB,[14],2.74 g/dL
same,ALT,[14],50 U/L
same,AST,[14],91 U/L
same,BUN,[14],49 mg/dL
same,TBIL,[14],0.13 mg/dL
same,Kidney weight,[15]; end of study,2.6 g
same,Liver weight,[15]; end of study,14 g
same,Spleen weight,[15]; end of study,2.1 g
same,body weight,"[15]; terminal, prior to necropsy",367 g
same,URINE P/C ratio (total protein to creatinine ratio),[16],5
